Our source for the CC50 and growth inhibitory effect values is US7531695B2, “Therapeutic agents for the treatment of cancer, metabolic diseases and skin disorders” (Auspex Pharmaceutical, Inc, priority 2004, dated 2009).

One test deals with A375 cells. Put plainly: A375 Tumor Cell Proliferation Assay. As to conditions: Homo sapiens, A-375, read-out: LC50 (50% Lethal Concentration). Type of test: cell-based. How it is done: (§1) A375 cells (5,000 per well in 90% RPMI-1640 plus 10% Fetal Bovine Serum [FBS]) were pre-incubated in a black clear bottom 96-well plate in an atmosphere of 5% CO2 at 37° C. for 24 hours. Stock solutions of compounds in DMSO were diluted using a buffer and dilutions were added to each well. […] The final assay pH was 7.4. The cells were incubated in RPMI-1640 with each compound for an additional 72 to 168 hours. Alamar Blue was added and the plate was incubated for an additional 12 hours. Fluorescence intensity was measured using a Gemini plate reader with excitation at 530 nm and emission at 590 nm. A decrease of 50 percent or more (≧50%) in fluorescence intensity relative to vehicle treated controls is an indication of significant anti-cancer activity.

For test [1], the system named is human head and neck squamous cell carcinoma cells (SCC 103). Put plainly: SCC103 Tumor Cell Proliferation Assay. The class given is cell-based. As to conditions: SCC 103 cells; compared to Bexarotene; FIG. 1. How it is done:
as §1, with “SCC 103” for “A375”, “(15,000” for “(5,000”, “EMEM medium” for “RPMI-1640”, “EMEM medium” for “RPMI-1640 with each compound”, “72” for “72 to 168”, “Blue (10% of culture volume)” for “Blue”

Structures are written as SMILES. Structures can show the parent of a compound that is named as a salt.

Turning to `COc1cccc2c1C(=O)c1c(O)c3c(c(O)c1C2=O)C[C@@](O)(C(=O)CO)C[C@@H]3O[C@H]1C[C@H](N)[C@H](O)[C@H](C)O1` [Doxorubicin], the CC50 in the test with A375 cells is 8 µM.
Turning to `C=C(c1ccc(C2=C(O)CCCC2=O)cc1)c1cc2c(cc1C)C(C)(C)CCC2(C)C` [Example 5, 5-3-Hydroxy-2-{4-[1-(3,5,5,8,8-pentamethyl-5,6,7,8-tetrahydro-naphthalen-2-yl)-vinyl]-phenyl}-cyclohex-2-enone], the growth inhibitory effect result in test [1] is listed as “enhanced activity”.
On to `Cc1cc2c(cc1C(=O)c1ccc(C3=C(O)CCCC3=O)cc1)C(C)(C)CCC2(C)C` [Example 8, 3-Hydroxy-2-[4(3,5,5,8,8-pentamethyl-5,6,7,8-tetrahydronaphthalene-2-carbonyl)-phenyl]-cyclohex-2-enone potassium salt], for which, in test [1], the growth inhibitory effect result was “enhanced activity”.
